Assay results from US20110294897A1, “Treating Xerophthalmia With Compounds Increasing Meibomian Gland Secretion” (Bridge Pharma, Inc., priority 2009, published 2011).

Key:
[1] = system: Meibomian gland secretion; assay: Meibomian gland secretion in vivo (Meibometer), other agonists
Procedure: Meibomian gland secretion was measured with a Meibometer (Courage-Khazaka Electronic GmbH, 50829 Cologne) and was increased in vivo as described in Examples 6 and 7, hereinafter.

[2] = target: T1, human β3 receptors (Homo sapiens, UniProt P13945); assay: human β3 adrenergic receptor binding, [125I]CYP
T1 construct: expressed in transfected cells; host or cells: SK-N-MC cells
T1 sequence (P13945 whole entry): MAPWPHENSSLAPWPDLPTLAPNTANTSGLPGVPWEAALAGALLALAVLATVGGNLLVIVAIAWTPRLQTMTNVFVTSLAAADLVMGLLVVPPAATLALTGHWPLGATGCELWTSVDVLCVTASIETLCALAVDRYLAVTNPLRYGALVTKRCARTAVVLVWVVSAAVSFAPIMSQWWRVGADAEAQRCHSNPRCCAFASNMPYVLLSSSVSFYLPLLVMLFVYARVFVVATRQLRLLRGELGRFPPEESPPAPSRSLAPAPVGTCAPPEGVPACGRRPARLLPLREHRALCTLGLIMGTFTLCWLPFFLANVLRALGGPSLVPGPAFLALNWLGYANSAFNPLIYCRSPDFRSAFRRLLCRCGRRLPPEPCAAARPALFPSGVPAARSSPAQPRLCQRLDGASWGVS
Excerpt: The specific ligand binding to the receptors is defined as the difference between the total binding and the nonspecific binding determined in the presence of an excess of unlabelled ligand.

[3] = system: intraocular pressure; assay: night-time intraocular pressure in Dutch-Belted rabbits; format: in vivo, rabbit; conditions: for increase of IOP: night-time IOP, ocular instillation
Procedure: Intraocular pressure (IOP) in rabbits is considerably higher during the night than during the day. The present experiments were conducted in Dutch-Belted rabbits in which IOP was higher during daytime as a consequence of switching the night/day cycle by exposing the animals to 12 hours of light during the night and 12 hours of darkness during daytime. […]

[4] = solubility in water; format: physicochemical
[5] = system: lacrimal gland secretion; assay: lacrimal secretion (Schirmer) after intravenous administration in conscious rabbits; format: in vivo, rabbit
Procedure: In short, Schirmer strips are strips of filter papers, which are in part inserted into the conjunctival sac and in part hanging out from the conjunctival sac. The Schirmer strips absorb the watery tear fluid as can be observed as wetting of the strips. The length of the wetted area is measured and is an indicator of the amount of available tear fluid in the conjunctival sac. […] The average pre-dose value (from three Schirmer readings in each animal) was compared with the average of four readings during the infusions of R-salbutamol.

[6] = system: Meibomian gland secretion; assay: Meibomian gland secretion (Meibometer) after intravenous infusion in conscious beagle dogs; format: in vivo, dog; conditions: for Meibomian gland secretion: pre-infusion 248±9 MU
Procedure: . A Meibometer (MB550, Courage-Khazaka GmbH, Koln, Germany) was used to measure the delivery rate of lipids from the Meibomian glands. The measurements were performed in conscious beagle dogs. To reduce variability all studies were performed by a single individual, who had obtained extensive training with the instrumentation and was used to the handling of conscious laboratory dogs. The methodology has been described by Benz, P., et al. 2008, which publication is hereby included by reference, although new and improved computer software was used in the present studies.

[7] = system: eyes of New Zealand White rabbits; assay: ocular irritation, Draize scoring in New Zealand White rabbits
Procedure: As a vehicle control 0.1 ml of 0.9% sodium chloride for injection (B. Braun; Lot No. J9A692) was instilled in the conjunctival sac of the left eye of all the rabbits. […] Draize scoring was assessed 30 minutes, 4 hours and 24 hours after the instillations of the placebo control (saline) and the test article solutions.
The grades of ocular reaction (conjunctivae, cornea, and iris) were determined at each examination.

[8] = system: intraocular pressure; assay: intraocular pressure in rabbits with glucose-elevated IOP; format: in vivo, rabbit; conditions: 10 μL instilled, 12-15 minutes after dosing
Procedure: Intraocular pressure (IOP) was increased in conscious rabbits by intravenous injections of glucose. The test compound was administered by instillation into the conjunctival sac immediately after the glucose injection and all measurements were made approximately 12-15 minutes after dosing. […] Thus, 10 μL of solutions containing 3.5 or 7.0 or 14.0 mg/ml in Tears Naturale® were instilled into the conjunctival sac. Tears Naturale® was used as control solution. TOP was measured using a manometrically calibrated BIO-RAD Digilab pneumatonometer. Tetracaine (10 μl, 0.5%) was applied to the cornea before the IOP measurements. N=7 Dutch Belted rabbits/group (2-4 kg; M and F).

[9] = system: Meibomian gland secretion; assay: Meibomian lipid secretion (Meibometer) after ocular instillation in conscious beagle dogs; format: in vivo, dog; conditions: Day 3, 4.0 percent in saline, single eye drops three times daily; vehicle 174 MU
Procedure: A Meibometer was used to measure the delivery rate of lipids from the Meibomian glands. The measurements were performed in conscious beagle dogs and the test methodology is described above (Example 6). In these experiments, Meibomian secretion was measured in saline vehicle-treated dogs and in groups of dogs that were treated with a test article, daily at about 9 AM, 11 AM and 1 PM with single eye drops. […] Both eyes were treated and a total of six dogs were used for each treatment group.

[10] = system: intraocular pressure; assay: normal intraocular pressure in Dutch-Belted rabbits; format: in vivo, rabbit; conditions: 4.1% in saline, twice daily for 5 days
Procedure: Intraocular pressure was measured twice daily using the methodology stated above.

[11] = system: patients; conditions: according to the manufacturer; cited from earlier work

CC(CCc1ccc(O)cc1)NCC(O)c1ccc(O)cc1 (racemic) [RR/SR ractopamine, ractopamine]
Meibomian gland secretion in vivo [1]: ability to increase Meibomian gland secretion in vivo

CC(C)(C)NCC(O)c1ccc(O)c(CO)c1 (racemic) [salbutamol, a′[(tert-butylamino)methyl]-4-hydroxy-m-xylene-a,a′-diol]
affinity for beta-3 receptors [2]: practically no affinity | Δ mmHg, nighttime intraocular pressure ([3]; RS-Hi 2.0%, 1 PM): −7 mmHg | Δ mmHg, nighttime intraocular pressure ([3]; RS-Hi 2.0%, 3 PM): −4 mmHg | Δ mmHg, nighttime intraocular pressure ([3]; RS-Hi 2.0%, 5 PM): −0 mmHg | Δ mmHg, nighttime intraocular pressure ([3]; RS-Hi 2.0%, 9:00 (instillation)): 0 mmHg | Δ mmHg, nighttime intraocular pressure ([3]; RS-Hi 2.0%, 9:30): −9 mmHg | Δ mmHg, nighttime intraocular pressure ([3]; RS-Hi 2.0%, 10 AM): −9 mmHg | Δ mmHg, nighttime intraocular pressure ([3]; RS-Hi 2.0%, 11 AM): −9 mmHg | Δ mmHg, nighttime intraocular pressure ([3]; RS-Lo 0.67%, 1 PM): −5 mmHg | Δ mmHg, nighttime intraocular pressure ([3]; RS-Lo 0.67%, 3 PM): −2 mmHg | Δ mmHg, nighttime intraocular pressure ([3]; RS-Lo 0.67%, 5 PM): −0.5 mmHg | Δ mmHg, nighttime intraocular pressure ([3]; RS-Lo 0.67%, 9:00 (instillation)): 0 mmHg | Δ mmHg, nighttime intraocular pressure ([3]; RS-Lo 0.67%, 9:30): −6 mmHg | Δ mmHg, nighttime intraocular pressure ([3]; RS-Lo 0.67%, 10 AM): −6 mmHg | Δ mmHg, nighttime intraocular pressure ([3]; RS-Lo 0.67%, 11 AM): −6 mmHg | increase of IOP [3]: Neither racemic nor isomeric salbutamol increased IOP | solubility in water [4]: readily soluble in water

CC(C)(C)NC[C@H](O)c1ccc(O)c(CO)c1 [R-salbutamol, R(−)-isomer of a′[(tert-butylamino)methyl]-4-hydroxy-m-xylene-a,a′-diol]
wetting of the Schirmer strips ([5]; during iv infusion 30 μg/kg/min for 20 min, predose 20.3±1.6, six eyes): 33.8±2.3 millimeter | increased wetting of the Schirmer strips ([5]; iv 30 μg/kg/min, versus predose): approximately 66% | affinity for beta-3 receptors [2]: practically no affinity | Meibomian gland secretion ([6]; during twenty-minute iv infusion 30 μg/kg/min): 235±23 MU | difference between pre-infusion and post-infusion secretion ([6]; iv 30 μg/kg/min for 20 min): approximately 27% | Meibomian gland secretion ([6]; ten minutes post-infusion): 316±26 MU | Mean Post-Instillation Irritation Score ([7]; 0.1% in saline, 4 Hours): 0 | Mean Post-Instillation Irritation Score ([7]; 0.1% in saline, 24 Hours): 0 | Mean Post-Instillation Irritation Score ([7]; 0.1% in saline, 30 Minutes): 0 | Mean Post-Instillation Irritation Score ([7]; 0.5% in saline, 4 Hours): 0 | Mean Post-Instillation Irritation Score ([7]; 0.5% in saline, 24 Hours): 0 | Mean Post-Instillation Irritation Score ([7]; 0.5% in saline, 30 Minutes): 0 | Mean Post-Instillation Irritation Score ([7]; 5.0% in saline, 4 Hours): 0 | Mean Post-Instillation Irritation Score ([7]; 5.0% in saline, 24 Hours): 0 | Mean Post-Instillation Irritation Score ([7]; 5.0% in saline, 30 Minutes): 0 | ocular irritancy ([7]; single-dose, in saline, concentrations up to 5%): not irritants | intraocular pressure lowered (vs control animals), mean±SEM ([8]; 3.5 mg/ml): 5.5±1.3 mmHg | intraocular pressure lowered (vs control animals), mean±SEM ([8]; 7.0 mg/ml): 6.7±1.5 mmHg | intraocular pressure lowered (vs control animals), mean±SEM ([8]; 14.0 mg/ml): 5.8±1.3 mmHg | Meibomian secretion, mean [9]: 304 MU | Δ mmHg, nighttime intraocular pressure ([3]; R-Hi 1.0%): −11 mmHg | Δ mmHg, nighttime intraocular pressure ([3]; R-Hi 1.0%, 1 PM): −10 mmHg | Δ mmHg, nighttime intraocular pressure ([3]; R-Hi 1.0%, 3 PM): −3 mmHg | Δ mmHg, nighttime intraocular pressure ([3]; R-Hi 1.0%, 5 PM): −2 mmHg | Δ mmHg, nighttime intraocular pressure ([3]; R-Hi 1.0%, 9:00 (instillation)): 0 mmHg | Δ mmHg, nighttime intraocular pressure ([3]; R-Hi 1.0%, 9:30): −7 mmHg | Δ mmHg, nighttime intraocular pressure ([3]; R-Hi 1.0%, 10 AM): −8 mmHg | Δ mmHg, nighttime intraocular pressure ([3]; R-Lo 0.33%, 1 PM): −4 mmHg | Δ mmHg, nighttime intraocular pressure ([3]; R-Lo 0.33%, 3 PM): −3 mmHg | Δ mmHg, nighttime intraocular pressure ([3]; R-Lo 0.33%, 5 PM): −2.5 mmHg | Δ mmHg, nighttime intraocular pressure ([3]; R-Lo 0.33%, 9:00 (instillation)): 0 mmHg | Δ mmHg, nighttime intraocular pressure ([3]; R-Lo 0.33%, 9:30): −7 mmHg | Δ mmHg, nighttime intraocular pressure ([3]; R-Lo 0.33%, 10 AM): −9 mmHg | Δ mmHg, nighttime intraocular pressure ([3]; R-Lo 0.33%, 11 AM): −9 mmHg | increase of IOP [3]: Neither racemic nor isomeric salbutamol increased IOP | concentration dissolved in water [4]: in excess of five percent by weight | solubility in water [4]: readily soluble in water | increase in IOP [10]: No increase in IOP was observed

CC(C)(C)NC[C@@H](O)c1ccc(O)c(CO)c1 [S-salbutamol]
Meibomian gland secretion in vivo [1]: may also increase Meibomian gland secretion

CNCC(O)c1ccc(OC(=O)C(C)(C)C)c(OC(=O)C(C)(C)C)c1 (centres unmarked) [dipivefrin]
patients with epinephrine intolerance [11]: 3%

CNC[C@H](O)c1ccc(O)c(O)c1 [epinephrine]
patients with epinephrine intolerance [11]: 55%

CC(C)(C)NC[C@H](O)COc1nsnc1N1CCOCC1 [timolol]
intraocular pressure lowered (vs control animals), mean±SEM ([8]; 3.5 mg/ml): 4.7±1.3 mmHg | intraocular pressure lowered (vs control animals), mean±SEM ([8]; 7.0 mg/ml): 4.6±1.0 mmHg | intraocular pressure lowered (vs control animals), mean±SEM ([8]; 14.0 mg/ml): 4.7±1.3 mmHg
